# Experimental data taken from PMC7261172, “Peptides containing the PCNA interacting motif APIM bind to the β-clamp and inhibit bacterial growth and mutagenesis” (Nucleic Acids Research, 2020).
# Like-named read-outs stand apart in the source and are kept apart here.
# Legend:
# [1] = test system: WT β-clamp; assay: SPR analysis, immobilized WT β-clamp; assay type: binding, Escherichia coli; details: 4-128 μM peptide, single-cycle mode, 25°C, PBS P+ pH 7.4; Figure 2A
# Description: (§4) The experiment was performed with Biacore S200 (GE Healthcare), at 25°C with a flowrate of 30 μl/min. Purified WT and mutant β-clamp protein were immobilized by amine coupling on CM5 Series S sensor chips (GE Healthcare).
# (§5) Octamer peptides containing APIM motifs (underlined) [sequence] and [sequence] were diluted in running buffer (PBS P+ buffer: 20 mM phosphate buffer pH 7.4, 3 mM KCl, 137 mM NaCl, 0.05% surfactant P20) at 4, 8, 16, 32, 64 and 128 μM, and analyzed by single-cycle mode. Six consecutive injections of alternating running buffer or peptide in running buffer, with an association phase of 120 seconds (s) followed by a dissociation phase of 60 s and a final dissociation phase of 600 s, were run for each β-clamp protein variant. The running buffer series were used as blanks together with the signal from the reference channels for double-reference subtraction. After each series of six injections, the sensor chip was washed with a 120 s regeneration injection of 1 M NaCl followed by a 120 s injection of running buffer. The sensorgrams were processed (reference subtracted) with Biacore S200 Evaluation Software Version 1.1 (GE Healthcare) and normalized according to the immobilized level.
# [2] = test system: mutant β-clamps (H148K, M362D, V151A, P363D, P242D, V247F); assay: SPR analysis, immobilized mutant β-clamps; assay type: binding, Escherichia coli; details: Figure 2B
# Description: as §4, §5
# [3] = test system: β-clamp; details: peptide:β-clamp 100:5 μM (RWLVK, RALVK octamers) or 50:20 μM (Pol III peptide); 298 K, pH 7.4
# Description: All NMR spectra were recorded in a standard 5 mm NMR tube at 298 K in 20 mM NaH2PO4, 100 mM NaCl, pH 7.4, 0.25 mM DSS, 10% D2O on a Bruker AVANCE III 800-MHz (^1H) spectrometer equipped with a room temperature probe. Free induction decays were transformed and analyzed in Topspin (Bruker Biospin) and the aromatic region assigned.
# [4] = test system: S.epidermidis (MRSE); assay type: cell-based, Staphylococcus epidermidis; details: 24 h
# Description: (§1) Briefly, bacterial suspension in Mueller-Hinton Broth was adjusted to 0.5 McFarland and diluted to 5 × 10^5 CFU/ml. The suspension (0.1 ml) was seeded in polypropylene microtiter plates (Greiner), 5 × 10^4 CFU/well. APIM-peptides were added as 10% of the total volume. Initial inoculums were quantified by seeding on agar for verification of the estimated CFU/mL. After 24 hours (h) incubation at 37°C, the microtiter plates were inspected for visible growth.
# [5] = test system: E. coli BL21; assay type: cell-based, Escherichia coli; details: Mueller-Hinton Broth, 5 × 10^5 CFU/ml, 24 h, 37°C; average of ≥3 independent biological experiments
# Description: as §1
# [6] = test system: E. coli MG1655; assay type: cell-based, Escherichia coli; details: Mueller-Hinton Broth, 5 × 10^5 CFU/ml, 24 h, 37°C; average of ≥3 independent biological experiments
# Description: as §1
# [7] = biological target: T1, E.coli β-clamp (Escherichia coli, UniProt P0A988); assay: Microscale thermophoresis (MST) β-clamp binding
# T1 construct: made in house
# T1 sequence (P0A988 whole entry): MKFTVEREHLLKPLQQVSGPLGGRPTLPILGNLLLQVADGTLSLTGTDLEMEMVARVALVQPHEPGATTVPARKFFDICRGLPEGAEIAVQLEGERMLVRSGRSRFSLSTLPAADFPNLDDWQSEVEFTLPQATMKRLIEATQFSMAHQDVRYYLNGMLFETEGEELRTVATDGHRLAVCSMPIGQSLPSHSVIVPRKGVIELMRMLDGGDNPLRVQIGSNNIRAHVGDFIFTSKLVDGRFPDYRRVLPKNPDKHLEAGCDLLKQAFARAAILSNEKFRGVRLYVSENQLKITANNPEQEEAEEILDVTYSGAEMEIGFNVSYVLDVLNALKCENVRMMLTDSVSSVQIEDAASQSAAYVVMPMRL
# Description: Purified E.coli β-clamp ([49]) was labeled using the RED-Maleimide Labelling Kit (NanoTemper Technologies, GmbH) according to the manufacturer's instructions applying a concentration of 20 μM protein at room temperature. The ligands, cell penetrating APIM-peptides, were dissolved and diluted in supplemented Microscale thermophoresis (MST) buffer (50 mM Tris–HCl pH 7.5, 150 mM NaCl, 10 mM MgCl2) with 2% fetal bovine serum and incubated for 10 min in room temperature. Series of 1:1 dilutions (16×), producing ligand concentrations ranging from 500 μM to 15 nM, were made. Each ligand solution was further diluted 1:1 with fluorescent labeled β-clamp (diluted in MST buffer, 3 nM) and incubated for 10 min. Fluorescence was measured for each protein-ligand sample using a Monolith NT.115 instrument (20% MST power and 100% LED power) and Monolith NT Standard Treated Capillaries (both NanoTemper Technologies, GmbH). To calculate the KD’s, fluorescence signals were plotted and analyzed using the supplemented software (NT Analysis software version 1.5.41 and MO.affinity analysis version 2.2.4, NanoTemper Technologies). Denaturation with SD-buffer (4% sodium dodecyl sulphate and 40 mM DTT) and re-measurement of total fluorescence confirmed that the observed change in fluorescence was due to ligand binding event.
# [8] = test system: E. coli BL21; assay: Overexpression (viability) assay; assay type: cell-based, Escherichia coli; details: IPTG 1 mM; 2 and 8 h after induction; peptide without cell penetrating part (MD-APIM-GILQSTLA); Figure 1D, Suppl. S1A
# Description: A stop codon is found in the multiple cloning site after the NcoI/NheI site. The sequence over-expressed is MD-APIM-[…].
# Induction was performed using isopropyl β-D-1-thiogalactopyranoside (IPTG) (1 mM) at OD600 = 0.3 - 0.4. Bacterial growth was measured by OD600 or the number of colony-forming units (CFU) per ml.
# [9] = test system: S.aureus ATCC 29213; assay: microbe, parasite or virus in culture; assay type: cell-based, Staphylococcus aureus
# Description: as §1
# (§2) Determination of minimal inhibitory concentrations (MICs) for S. aureus was done at Statens Serum Institute, Copenhagen, Denmark.
# [10] = test system: S.aureus FDA486; assay: microbe, parasite or virus in culture; assay type: cell-based, Staphylococcus aureus
# Description: as §1, §2
# [11] = biological target: β-clamp; details: read-out: KD for the β-clamp; cited from earlier work
# From the text: Next, we examined the direct interaction between the β-clamp and octamer peptides containing RWLVK and RALVK (i.e. without the cell penetrating part of the peptide) by SPR.
# [12] = test system: E. coli MG1655; assay: Rif^R mutagenicity assay, added cell penetrating peptides; assay type: cell-based, Escherichia coli; details: for Mutation frequency, added peptides: spontaneous, E. coli MG1655, cell penetrating peptide 20 μM, average ± SEM, RWLVK n = 11, RFSLK n = 4, RWLK n = 7, R11 n = 5, control 10.5 ± 2.2
# Description: (§3) The rifampicin resistance (Rif^R) mutagenicity assay was performed as described in ([50]) with some modifications. Briefly, E. coli BL21 expressing peptide variants were induced with (IPTG) (1 mM) at OD600 = 0.3–0.4 and cultured at 37°C, for 2 h before harvested. Bacteria from large culture volumes (up to 50 ml) were plated in order to obtain ∼100 Rif^R colonies per dish. The anti-mutagenic effect of cell penetrating APIM-peptides in E. coli MG1655 was done by adding 20 μM peptide at OD600 = 0.01, and the cells were cultured for 30 min. Next, the cells were pelleted and washed with PBS before UV-irradiated in (50 μl) PBS (2 mJ UVC/cm^2), re-suspended in 2.5 ml LB and cultured in 37°C for 2 h before plating on LB plates with and without Rif (100 μg/ml). The number of Rif^R colonies/ total CFU was determined after 1 and 2 days, respectively. Significance was calculated by using a two-tailed, paired, students t-test. Gentamicin resistance (Gen^R) was examined using a gentamicin sensitive clinical isolate of S. epidermidis. […] The cultures were grown in a shaking incubator (37°C) and were re-inoculated (1:100) every 24 h in fresh TSB and supplements. The cultures were plated on blood agar plates with and without gentamicin (10 mg/l) every day for 4 days, and the frequency of Gen^R colonies was determined by calculating the number of Gen^R colonies/total CFU.
# [13] = test system: S.aureus (MRSA) 43484; assay type: cell-based, Staphylococcus aureus
# Description: as §1, §2
# [14] = test system: S.aureus FusA88799; assay type: cell-based, Staphylococcus aureus; details: n = 3
# Description: as §1, §2
# [15] = test system: E. coli MG1655 WT and TLS deletion mutant cells; assay: Rif^R mutagenicity assay in WT and TLS deletion strains; assay type: cell-based, Escherichia coli; details: peptide 20 μM
# From the text: S. aureus: ATCC 29213, FDA486, methicillin-resistant S. aureus strain (MRSA) 43484 and FusA88779; S. epidermidis: clinical isolates (including one gentamicin sensitive strain and several multidrug-resistant strains) from Department of Microbiology, St. Olavs University Hospital, Trondheim, Norway, kindly provided by professor Kåre Bergh; Escherichia coli: strains DH5α, BL21 (RIPL) DE3 (Novagen), K12 (MG1655) wild type (WT) and TLS deletion strains (ΔPol II^3, ΔPol IV^1, ΔPol V^1, ΔPol II/IV^3, ΔPol II/V^3, ΔPol IV/V^2 and ΔPol II/IV/V^3). ^1 Keio collection, ^2 generated by Prof Magnar Bjørås’ group, UiO and ^3prepared as described ([43]). Briefly, polB was inactivated in E. coli MG1655 WT, ΔPol IV, ΔPol V and ΔPol IV/V using JW0059:: polB. A phage stock (T4GT7) diluted in T4 buffer was added to the JW0059::polB culture, incubated and plated on LB agar plates. The lysate was harvested and added to 2 ml T4 buffer and 0.2 ml CHCl3 (T4GT7 lysate). The mixture was centrifuged, and supernatant stored at 4°C over 20 μl CHCl3. 0.5 ml overnight culture of the recipient cells was re-suspended in 1 ml of T4 buffer and aliquoted. The T4GT7 lysate (10^−1, 10^−2, 10^−3 and 10^−4 dilutions) was added to the aliquots, incubated for 25 minutes (min) at room temperature and plated on LB-agar plates with kanamycin. Colonies obtained were re-streaked twice to obtain a pure culture. Kanamycin resistance cassettes replacing the deleted polB genes were removed by an FLP-recombinase expressed by pCP20 plasmid.
# as §3
# [16] = test system: E. coli BL21; assay: Rif^R mutagenicity assay, overexpressed peptides; assay type: cell-based, Escherichia coli
# Description: as §3
# [17] = Mueller-Hinton Broth, 5 × 10^5 CFU/ml, 37°C, average of ≥3 independent biological experiments
# [18] = molar form of the μg/ml MIC (RWLVK MW = 3674 Da, ciprofloxacin MW = 313 Da), n = 3
# [19] = molar form of the μg/ml MIC, n = 3
compound,measurement,setting,value
Ac-MDRWLVKW,Binding of octamer peptide to WT β-clamp (SPR),[1],bound stronger
same,Binding of peptide to all β-clamp variants (SPR),"[2]; H148K, M362D, V151A, P363D, P242D, V247F versus WT",reduced ability to bind
same,Reduced binding of peptide to β-clamp V247F (SPR),[2]; β-clampV247F versus WT,~50%
same,"Binding to β-clamp by 1D 1H NMR (line broadening, chemical shift or intensity change)",[3],visual line broadening
Ac-MDRALVKWKKKRKIRRRRRRRRRRR-NH2 [RALVK],Minimal Inhibitory Concentration (MIC) S.epidermidis (MRSE),[4]; [17],3 µM
same,Minimal Inhibitory Concentration (MIC) E. coli BL21,[5],5 µM
same,Minimal Inhibitory Concentration (MIC) E. coli MG1655,[6],9 µM
same,Kd,"[7]; cell penetrating peptides, MST buffer with 2% fetal bovine serum, initial in vitro binding experiments, bounds given, read-out: KD for the β-clamp (MST)",> 750 µM
MD-RALVK- GILQSTLA [RALVK (overexpressed)],Effect of peptide overexpression on bacterial growth (CFU/ml relative to uninduced culture; OD600),[8],did not inhibit bacterial growth
"O=C(O)c1cn(C2CC2)c2cc(N3CCNCC3)c(F)cc2c1=O [Ciprofloxacin, reference compound]",MIC,"[9]; Staphylococcus aureus, ATCC29213, Mueller-Hinton Broth, 5 × 10^5 CFU/ml, 24 h, 37°C, visible growth, same result in three biological replicates (n = 3), read-out: Minimal Inhibitory Concentration (MIC) S.aureus ATCC 29213",0.5 µg/mL
same,Minimal Inhibitory Concentration (MIC) S.aureus ATCC 29213,[9]; [18],1.5 µM
same,MIC,"[10]; Staphylococcus aureus, FDA486, Mueller-Hinton Broth, 5 × 10^5 CFU/ml, 24 h, 37°C, visible growth, n = 3, read-out: Minimal Inhibitory Concentration (MIC) S.aureus FDA486",0.25 µg/mL
same,Minimal Inhibitory Concentration (MIC) S.aureus FDA486,[10]; [19],0.8 µM
Ac-MDAWLVKW,"Binding to β-clamp by 1D 1H NMR (line broadening, chemical shift or intensity change)",[3],could not detect any binding
Ac-EQVELEFD [Pol III peptide],Kd,[11],~2 µM
Ac-MDRWLKWKKKRKIRRRRRRRRRRR-NH2 [RWLK],Minimal Inhibitory Concentration (MIC) S.epidermidis (MRSE),[4]; [17],4 µM
same,Minimal Inhibitory Concentration (MIC) E. coli BL21,[5],6 µM
same,Minimal Inhibitory Concentration (MIC) E. coli MG1655,[6],12 µM
same,KD for the β-clamp (MST),"[7]; cell penetrating peptides, MST buffer with 2% fetal bovine serum, initial in vitro binding experiments, bounds given",no binding was detected
same,"Mutation frequency, added peptides",[12],7.7 ± 3.3 Rif^R/10^8 CFU
Ac-MDRWLVKWKKKRKIRRRRRRRRRRR-NH2 [RWLVK],Minimal Inhibitory Concentration (MIC) S.aureus ATCC 29213,"[9]; ATCC 29213, 24 h",10 µg/mL
same,Minimal Inhibitory Concentration (MIC) S.aureus ATCC 29213,[9]; [18],3 µM
same,Minimal Inhibitory Concentration (MIC) S.aureus FDA486,"[10]; FDA486, 24 h",10 µg/mL
same,Minimal Inhibitory Concentration (MIC) S.aureus FDA486,[10]; [19],3 µM
same,Minimal Inhibitory Concentration (MIC) S.aureus (MRSA) 43484,"[13]; 43484, 24 h",10 µg/mL
same,Minimal Inhibitory Concentration (MIC) S.aureus (MRSA) 43484,[13]; [19],3 µM
same,Minimal Inhibitory Concentration (MIC) S.aureus FusA88799,"[14]; Mueller-Hinton Broth, 5 × 10^5 CFU/ml, 24 h, 37°C, visible growth",10 µg/mL
same,Minimal Inhibitory Concentration (MIC) S.aureus FusA88799,[14]; molar form of the μg/ml MIC,3 µM
same,Minimal Inhibitory Concentration (MIC) S.epidermidis (MRSE),[4],3 µM
same,Minimal Inhibitory Concentration (MIC) E. coli BL21,[5],5 µM
same,Minimal Inhibitory Concentration (MIC) E. coli MG1655,[6],11 µM
same,Kd,[7],< 50 µM
same,Effect on UV-induced mutation frequency,"[12]; E. coli MG1655, peptide 20 μM, 2 mJ UVC/cm^2, Figure 4A",reduced the mutation frequency
same,"Mutation frequency, added peptides",[12],5.9 ± 2.3 ** Rif^R/10^8 CFU
same,Effect on mutation frequency after UV-damage in all Pol V containing strains,"[15]; UV 2 mJ/cm^2, Figure 4C",reduced the mutation frequency
same,Effect on mutation frequency after UV-irradiation in the ΔPol IV/V strain,"[15]; UV 2 mJ/cm^2, Figure 4C",reduction in the mutation frequency
same,Effect on spontaneous mutation frequency in wild type (WT),"[15]; n = 8–10, Figure 4C",significantly reduced
same,Effect on mutation frequency in the TLS deficient ΔPol II/IV/V strain,[15]; under any conditions (spontaneous and UV),No reduction of mutation frequency
same,Effect on spontaneous mutation frequency in the ΔPol II/V strain,[15]; Figure 4C,increased mutation frequency
MD-RWLK- GILQSTLA [RWLK (overexpressed)],Effect of peptide overexpression on bacterial growth (CFU/ml relative to uninduced culture; OD600),[8],did not inhibit bacterial growth
same,Effect of overexpression on the mutation frequency,"[16]; E. coli BL21, spontaneous",did not affect the mutation frequency
same,"Mutation frequency, overexpressed peptides","[16]; spontaneous, E. coli BL21, IPTG 1 mM, 2 h, average ± SEM, RWLVK n = 5, RFSLK n = 5, RWLK n = 6, control 2.5 ± 0.4",3.8 ± 1.2 Rif^R/10^8 CFU
